Data as given in ChEMBL document CHEMBL3507680, “University of Dundee, Gates Library screen for HepG2 cell viability”.

Assay: Human HepG2 cell viability assay in 384 well format
Format: toxicity, cell-based
Parameters: dose 125 nL, time 70.5 hour; cytotoxicity at 70.5 h: concentration not given beside the values
Settings: HepG2 cells, read-out: Inhibition

Cc1ccc(Oc2ncccc2C(=O)N(C)CCCN(C)C)cc1
cytotoxicity at 70.5 h: 0.617%

CN(C)CCN(CC1CCCO1)C(=O)Cc1cn2ccccc2n1 (stereo not drawn)
cytotoxicity at 70.5 h: 17.3%

CCC(CN1CCCC1)n1cncc1-c1cnn(-c2ccccc2)c1 (stereo not drawn)
cytotoxicity at 70.5 h: -2.29%

CCN(CC)Cc1ccc(C(=O)NC2CCc3cc(F)ccc32)o1 (stereo not drawn)
cytotoxicity at 70.5 h: -19%

Cc1nc(CNC2(C(=O)OC(C)(C)C)CCCC2)oc1C
cytotoxicity at 70.5 h: -8.39%

Cc1ccc(C(=O)N2CCN(CC(C)O)CC2)cc1S(C)(=O)=O (stereo not drawn)
cytotoxicity at 70.5 h: -6.11%

N#Cc1ccnc(N2CCN(CC(O)c3c(F)cccc3F)CC2)c1 (stereo not drawn)
cytotoxicity at 70.5 h: 15.3%

COc1ccc2cc(CNCc3c(C)nn(C)c3N(C)C)ccc2c1
cytotoxicity at 70.5 h: 23%

Fc1ccc(-c2noc(C3COCCO3)n2)cc1F (stereo not drawn)
cytotoxicity at 70.5 h: -1.66%

CCSc1ncccc1C(=O)NCc1ccc(N(C)C)cc1
cytotoxicity at 70.5 h: -7.85%

Cc1cc(-c2cnn(CCNC(=O)C3CCCO3)c2C2CC2)on1 (stereo not drawn)
cytotoxicity at 70.5 h: -9.36%

CC(C)c1nnc2n1CCN(Cc1cc(Cl)c3c(c1)OCO3)C2
cytotoxicity at 70.5 h: -1.27%

CC(NC(=O)CSCC(N)=O)c1ccc(Oc2ccccc2)cc1 (stereo not drawn)
cytotoxicity at 70.5 h: -8.85%

COC[C@@]12CCO[C@@H]1CCN(Cc1ccc(C)s1)C2
cytotoxicity at 70.5 h: 15.9%

Cc1nc(CN2CCc3ncnc(-c4ccccc4)c3CC2)cs1
cytotoxicity at 70.5 h: -9.56%

CN(C)[C@@H]1CCN(c2ncc(F)cn2)[C@H]1Cc1cccnc1
cytotoxicity at 70.5 h: 17.3%

O=C(Cc1ccccc1Br)NCC(=O)Nc1cn[nH]c1
cytotoxicity at 70.5 h: -6.36%

O=C(NC1CCCN(c2ccccc2Cl)C1)c1ccc(=O)[nH]n1 (stereo not drawn)
cytotoxicity at 70.5 h: -12.6%

Cc1ccc2nc(C3CCCN3Cc3scnc3C)[nH]c2c1 (stereo not drawn)
cytotoxicity at 70.5 h: -6.86%

Cc1nccn1CC1CCCN(C(=O)c2cnn(C)c2)C1 (stereo not drawn)
cytotoxicity at 70.5 h: -12.8%

O=S(=O)(CCO)Cc1ccc(OC(F)F)cc1
cytotoxicity at 70.5 h: -5.07%

O=C(NCCN1CCOCC1)c1ccn(-c2ccccc2F)n1
cytotoxicity at 70.5 h: -2.56%

CSc1ccc(NC(=O)NCC(O)C2CC2)cc1F (stereo not drawn)
cytotoxicity at 70.5 h: 7.73%

CC(C)CC(CNC(=O)NCc1cc[nH]n1)N1CCOCC1 (stereo not drawn)
cytotoxicity at 70.5 h: 39.4%

O=C(Cn1ccc2ccc(Br)cc21)NCc1ccc(C(=O)O)cc1
cytotoxicity at 70.5 h: -6.34%

NC(=O)C1(CCCc2ccccn2)CCCN(c2ncccn2)C1 (stereo not drawn)
cytotoxicity at 70.5 h: -2.53%

CCCS(=O)(=O)NCCc1ncc(C)s1
cytotoxicity at 70.5 h: -11.1%

CCc1cccc(N2CCC(NC(=O)C3CCC3)CC2)c1
cytotoxicity at 70.5 h: -6.88%

CC(C)CN1CCc2[nH]cnc2C12CCN(C(=O)c1ccc[nH]1)CC2
cytotoxicity at 70.5 h: -3.93%

O=C(NCc1ccco1)[C@H]1CC[C@@H]2[C@@H](CCN2Cc2cccnc2)O1
cytotoxicity at 70.5 h: -5.95%

F[C@@H]1CN(CC2CC2)C[C@@H]1OCc1nc2ncccc2[nH]1
cytotoxicity at 70.5 h: -3.03%

CCc1ncc2c(n1)CN(C(=O)CNC(=O)C(C)C)C2
cytotoxicity at 70.5 h: 22.7%

Cc1cccnc1N1CCN(C(=O)CCc2cn3ccccc3n2)CC1
cytotoxicity at 70.5 h: 15.3%

CC(C)C1=NOC(c2nc(Cc3ccccc3)no2)C1 (stereo not drawn)
cytotoxicity at 70.5 h: -1.11%

Cn1cc(-c2ccc(C3CCCCN3Cc3cccnc3)cn2)cn1 (stereo not drawn)
cytotoxicity at 70.5 h: -1.27%

c1ccc(Cc2nnc(CN3CCCCC3Cn3cncn3)o2)cc1 (stereo not drawn)
cytotoxicity at 70.5 h: 0.659%

Cc1nc(CNC(=O)Nc2cc(F)ccc2OC(F)F)no1
cytotoxicity at 70.5 h: -3.38%

O=c1[nH]nc(CCCN2CCOCC2)n1-c1ccc(F)cc1F
cytotoxicity at 70.5 h: 24.5%

CC(C)(C)C(=O)NCCNCc1ccc(Cl)c2cccnc12
cytotoxicity at 70.5 h: -0.239%

CN(C)c1ccc(C(=O)N2CCN(Cc3cscn3)CC2)cn1
cytotoxicity at 70.5 h: -6.24%

c1ccc(COC[C@H]2CC[C@H]3[C@H](CCN3Cc3cccs3)O2)nc1
cytotoxicity at 70.5 h: -3.77%

Cc1cccc(CN2CCC(n3cc(CCO)nn3)CC2)c1C
cytotoxicity at 70.5 h: 2.7%

CCc1nnc(CN2CCCC(Cn3nc(C)nc3C)C2)o1 (stereo not drawn)
cytotoxicity at 70.5 h: -11.6%

CSCCC(=O)NCc1cc2n(n1)CCN(C(=O)N(C)C)C2
cytotoxicity at 70.5 h: -8.07%

CCN(C)C[C@@H]1CN(S(=O)(=O)c2ccc(OC)cc2)C[C@@H]1CO
cytotoxicity at 70.5 h: 10.4%

CN(Cc1cccc(F)c1)C(=O)c1cc2c([nH]c1=O)CCCC2=O
cytotoxicity at 70.5 h: 2.65%

CN(C)CCN(C)S(=O)(=O)CC1CCOCC1
cytotoxicity at 70.5 h: -7.41%

COc1ccc(C(=O)N2C[C@@H](c3ccccc3)[C@@H]3NCCCC[C@@H]32)cc1
cytotoxicity at 70.5 h: -8.54%

CCOc1ncccc1NC(=O)NC1CCN(C(=O)C2CC2)CC1
cytotoxicity at 70.5 h: 3.99%

O=C(c1ccccc1)N1C[C@@H]2CC[C@H](C1)N(C(=O)CN1CCOCC1)C2
cytotoxicity at 70.5 h: 3.79%

COc1ncccc1CN1CCn2c(C(=O)N3CCCC3)cnc2C1
cytotoxicity at 70.5 h: -5.02%

CO[C@@H]1CC[C@H]2[C@H]1OCCN2CCOCc1ccccc1
cytotoxicity at 70.5 h: -12.3%

CNC(=O)c1ccc(CNC(=O)c2ccc(Cl)cc2F)cc1
cytotoxicity at 70.5 h: -11.8%

COc1ccc(C2CCCCCN2S(C)(=O)=O)cc1 (stereo not drawn)
cytotoxicity at 70.5 h: 1.84%

CCc1cnc(CN(C)C2CCN(CCn3cc(C#N)cn3)C2)o1 (stereo not drawn)
cytotoxicity at 70.5 h: 16.4%

COc1ccccc1C1=NOC(CC2(C(=O)NC(C)C)CCOCC2)C1 (stereo not drawn)
cytotoxicity at 70.5 h: -4.53%

Cn1ncc2c(NCC(=O)N3CCNCC3)nc(C(C)(C)C)nc21
cytotoxicity at 70.5 h: -1.24%

CSc1cccc(CNC(=O)C2CC(=O)N(C3CC3)C2)c1 (stereo not drawn)
cytotoxicity at 70.5 h: -1.83%

Cc1cc(C(=O)N(C)C)c2c(Br)cccc2n1
cytotoxicity at 70.5 h: -10.8%

CN1CCCN(c2ncnc(N3CCOCC3)c2N)CC1
cytotoxicity at 70.5 h: -6.57%

COc1ccc(CCC(=O)N2CCCCC2Cn2cccn2)cc1F (stereo not drawn)
cytotoxicity at 70.5 h: -7.2%

c1ccc(OCCNc2ncnc3sc4c(c23)CCNC4)cc1
cytotoxicity at 70.5 h: 1.62%

Cc1nc2ccccn2c1CN1C[C@@H](CN(C)C)[C@@H](CO)C1
cytotoxicity at 70.5 h: -6.27%

CCc1nccn1C1CCCN(C(=O)c2cncnc2C)C1 (stereo not drawn)
cytotoxicity at 70.5 h: 16%

CC(C)N(C)CC(=O)N1CCCC(n2ccnc2)C1 (stereo not drawn)
cytotoxicity at 70.5 h: 1.97%

COCCN1CCN(C(=O)C(c2cccc(F)c2)N(C)C)CC1 (stereo not drawn)
cytotoxicity at 70.5 h: 1.27%

CCN1CC2(CCC1=O)CCN(Cc1cccc(C#N)c1)CC2
cytotoxicity at 70.5 h: -4.47%

O=C(c1ccoc1)N1CCc2ncnc(NCc3ccccn3)c2CC1
cytotoxicity at 70.5 h: 25.5%

O=C([C@@H]1CC[C@@H]2[C@@H](CCN2Cc2cccs2)O1)N1CCCCO1
cytotoxicity at 70.5 h: -7.83%

CSc1ncc(CNC(C)c2cnn(-c3ccccc3)c2C)cn1 (stereo not drawn)
cytotoxicity at 70.5 h: -2.21%

Cc1cc(C(=O)N2CCC3(CC2)CN(CCN(C)C)C(=O)O3)nc(C)n1
cytotoxicity at 70.5 h: -6.56%

CCc1nc2n(n1)CC(NCC(=O)Nc1cc(C(C)(C)C)no1)CC2 (stereo not drawn)
cytotoxicity at 70.5 h: -0.0913%

N#Cc1ccc(CN2C[C@@H](F)[C@@H](OCc3nc4cnccc4[nH]3)C2)cc1
cytotoxicity at 70.5 h: -1.95%

O=C(NC1CC1)C1CN(C(=O)c2cnccn2)C1
cytotoxicity at 70.5 h: -3.98%

Cn1nnnc1SCCNC(=O)C1CCN(C(=O)C2CCC2)CC1
cytotoxicity at 70.5 h: -5.55%

O=C1COC2(CCN(Cc3cccs3)CC2)CN1c1ccccc1
cytotoxicity at 70.5 h: -4.47%

COc1ccccc1CC(=O)N1CCC(NCc2ccncc2)CC1
cytotoxicity at 70.5 h: -1.58%

CCOC(=O)N1[C@@H](c2ccco2)[C@@H](CO)C[C@]12CCCCNC2=O
cytotoxicity at 70.5 h: -6.22%

O=C(c1cccc(O)c1)N1CCC2(CCN2c2ncccn2)C1 (stereo not drawn)
cytotoxicity at 70.5 h: 2.82%

c1cc(CN2CCCC3(CCN(CC4CCCO4)CC3)C2)n[nH]1 (stereo not drawn)
cytotoxicity at 70.5 h: -6.85%

CCNC(=O)N1CCC(OC)c2ccccc2N(CC(=O)NC)C(=O)C1 (stereo not drawn)
cytotoxicity at 70.5 h: -2.79%

O=C(c1ccc2c(c1)OCO2)N1C[C@H](OCC2CC2)[C@H]2COC[C@H]21
cytotoxicity at 70.5 h: -8.17%

Cc1nc(C)n(CC2CN(Cc3ccncc3)Cc3nccn3C2)n1 (stereo not drawn)
cytotoxicity at 70.5 h: -4.22%

COCCNC(=O)N1CCC(NC(C)C)CC1
cytotoxicity at 70.5 h: 5.14%

CCc1ccc(S(=O)(=O)Nc2cnc(N3CCOCC3)nc2)cc1
cytotoxicity at 70.5 h: -2.95%

CN1CCN(Cc2cnc3n2CCN(CCc2ccccc2)C3)CC1
cytotoxicity at 70.5 h: 19.5%

Cc1c(C(C)NC(=O)Nc2ccccc2F)cnn1C (stereo not drawn)
cytotoxicity at 70.5 h: -5.46%

CCOC(C)C(=O)NCCNS(C)(=O)=O (stereo not drawn)
cytotoxicity at 70.5 h: -6.01%

Cc1cnc(N2CCC3(CC2)CC(NC(=O)N(C)C)CO3)nc1 (stereo not drawn)
cytotoxicity at 70.5 h: -0.406%

COCCOCC(=O)N1C[C@@H]2CC[C@H](Oc3cccc(F)c3)[C@@H]2C1
cytotoxicity at 70.5 h: -3.05%

O=C(C1CCC1)N1CCC2(COCc3cnc(N4CCOCC4)nc32)C1 (stereo not drawn)
cytotoxicity at 70.5 h: 8.28%

COc1ccc(S(=O)(=O)Cc2noc(CC(C)C)n2)cc1
cytotoxicity at 70.5 h: 5.74%

Cc1cnn(CC(C)NCc2ccc(OCc3cccnc3)cc2)c1 (stereo not drawn)
cytotoxicity at 70.5 h: 2.45%

Cc1c(S(=O)(=O)N2CCCC2c2nnc(-c3ccsc3)o2)cnn1C (stereo not drawn)
cytotoxicity at 70.5 h: 0.227%

O=C(Nc1ccccc1C(=O)NCCN1CCOCC1)c1ccco1
cytotoxicity at 70.5 h: 24.9%

COc1cccc(CN2CCCC3(CCN(C(=O)[C@H]4CCCO4)C3)C2)c1 (stereo partly drawn)
cytotoxicity at 70.5 h: -2.99%

COCCN1CCN(C(C)c2nc(C3CC3)no2)CC1 (stereo not drawn)
cytotoxicity at 70.5 h: 17%

COCCN1C[C@@H]2CN(c3ncccn3)C[C@@H]2C1=O
cytotoxicity at 70.5 h: -7.68%

O=C(O)c1cncc(Cc2ccc(F)cc2)c1
cytotoxicity at 70.5 h: -7.6%

O=C(CN1CCCC1=O)NCc1cccnc1Oc1ccc(F)c(F)c1
cytotoxicity at 70.5 h: 1.24%

CN1CCC2(CCCN(C(=O)c3cncn3C)C2)CC1
cytotoxicity at 70.5 h: -7.82%

Nc1nc(CN2CCOC(Cn3cccn3)C2)nc2ccccc12 (stereo not drawn)
cytotoxicity at 70.5 h: -11.8%

NC(=O)N1CCC(C(=O)NC2CCc3nccn3C2)CC1 (stereo not drawn)
cytotoxicity at 70.5 h: -110%

CN(C)C(=O)CN1C[C@H]2CCN(C(=O)C3CCCO3)CC[C@H]2S1(=O)=O (stereo partly drawn)
cytotoxicity at 70.5 h: -4.76%

CC(C)c1ccccc1OCCNC(=O)N1CCC(CC(N)=O)CC1
cytotoxicity at 70.5 h: -4.04%

CCN(Cc1nc(Cc2ccccc2)no1)C1CC1
cytotoxicity at 70.5 h: -4.11%

CC(C)CN1CCS(=O)(=O)[C@@H]2CCN(S(=O)(=O)c3ccccc3)CC[C@@H]21
cytotoxicity at 70.5 h: -1.95%

O=C1CC(NS(=O)(=O)NCc2ccccc2)CN1c1ccccc1Cl (stereo not drawn)
cytotoxicity at 70.5 h: 5.29%

CC(C)c1cc(C(=O)N2CCCC(Cn3cc(CO)nn3)C2)on1 (stereo not drawn)
cytotoxicity at 70.5 h: -2.32%

Cn1cnc2c1CCN(CC(=O)N(Cc1ccsc1)C1CC1)C2
cytotoxicity at 70.5 h: 0.271%

CC(C)(C#N)c1ccccc1CN1CCC(N2CCCC2=O)CC1
cytotoxicity at 70.5 h: 13.9%

CC(CNC(=O)N1CCNC(=O)CC1)Cc1cccs1 (stereo not drawn)
cytotoxicity at 70.5 h: 0.139%

O=C(NCCNc1ccc(C(F)(F)F)cn1)c1ccc(F)cc1Cl
cytotoxicity at 70.5 h: -3.01%
